According to ChEMBL document CHEMBL1201862, “PubChem BioAssay data set” (2004):
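How tested: cells in 96-well plates exposed to compound for 48 hours at five concentrations. GI50 marks 50% less growth.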 Calls of active or inactive are those of the source. Rule as the data show it: active = GI50 up to about 1.1 µM and inactive = higher.

Assays:
Experiment in all cases: NCI anticancer screen, dose series, 48 h
SF-268 = system: SF-268
UACC-257 = system: UACC-257
SW-620 = system: SW-620
HT-29 = system: HT-29
MDA-N = system: MDA-N
CCRF-CEM = system: CCRF-CEM
SK-MEL-5 = system: SK-MEL-5
SF-295 = system: SF-295
SN12C = system: SN12C
OVCAR-8 = system: OVCAR-8
BT-549 = system: BT-549
SK-OV-3 = system: SK-OV-3
Hs-578T = system: Hs-578T
EKVX = system: EKVX
Malme-3M = system: Malme-3M
HL-60 = system: HL-60
OVCAR-4 = system: OVCAR-4
LOX IMVI = system: LOX IMVI
MCF7 = system: MCF7
NCI-H226 = system: NCI-H226
MDA-MB-231 = system: MDA-MB-231
COLO 205 = system: COLO 205
OVCAR-3 = system: OVCAR-3
786-0 = system: 786-0
DU-145 = system: DU-145
NCI-H23 = system: NCI-H23
K562 = system: K562
A498 = system: A498
RXF 393 = system: RXF 393
NCI-H460 = system: NCI-H460
PC-3 = system: PC-3
SNB-75 = system: SNB-75
SK-MEL-28 = system: SK-MEL-28
IGROV-1 = system: IGROV-1
UO-31 = system: UO-31
KM12 = system: KM12
NCI/ADR-RES = system: NCI/ADR-RES
OVCAR-5 = system: OVCAR-5
A549 = system: A549
CAKI-1 = system: CAKI-1
ACHN = system: ACHN
MDA-MB-435 = system: MDA-MB-435
TK-10 = system: TK-10
U-251 = system: U-251
HCT-15 = system: HCT-15
HOP-62 = system: HOP-62
SNB-19 = system: SNB-19
UACC-62 = system: UACC-62
NCI-H522 = system: NCI-H522
SR = system: SR
HOP-92 = system: HOP-92
T47D = system: T47D
HCT-116 = system: HCT-116
M14 = system: M14
SF-539 = system: SF-539
SK-MEL-2 = system: SK-MEL-2
MOLT-4 = system: MOLT-4
HCC 2998 = system: HCC 2998
RPMI-8226 = system: RPMI-8226

Compound: COc1ccccc1N1CCN(CCCN2C(C(=O)c3ccccc3)=C(O)c3c(C)cc(C)nc3S2(=O)=O)CC1
- GI50 (SF-268): 42.5 µM (inactive)
- GI50 (UACC-257): 74.1 µM (inactive)
- GI50 (SW-620): 89.7 µM (inactive)
- GI50 (HT-29): 34.8 µM (inactive)
- GI50 (MDA-N): > 100 µM (inactive)
- GI50 (CCRF-CEM): 52.5 µM (inactive)
- GI50 (SK-MEL-5): 51.9 µM (inactive)
- GI50 (SF-295): 35.7 µM (inactive)
- GI50 (SN12C): 63 µM (inactive)
- GI50 (OVCAR-8): 64.1 µM (inactive)
- GI50 (BT-549): > 100 µM (inactive)
- GI50 (SK-OV-3): 85.9 µM (inactive)
- GI50 (Hs-578T): 59.3 µM (inactive)
- GI50 (EKVX): 37 µM (inactive)
- GI50 (Malme-3M): > 100 µM (inactive)
- GI50 (HL-60): 79.4 µM (inactive)
- GI50 (OVCAR-4): 73.3 µM (inactive)
- GI50 (LOX IMVI): 13.4 µM (inactive)
- GI50 (MCF7): 96.4 µM (inactive)
- GI50 (NCI-H226): 0.867 µM (active)
- GI50 (MDA-MB-231): > 100 µM (inactive)
- GI50 (COLO 205): 64 µM (inactive)
- GI50 (OVCAR-3): 55 µM (inactive)
- GI50 (786-0): 39.5 µM (inactive)
- GI50 (DU-145): > 100 µM (inactive)
- GI50 (NCI-H23): > 100 µM (inactive)
- GI50 (K562): 56.5 µM (inactive)
- GI50 (A498): > 100 µM (inactive)
- GI50 (RXF 393): 5.28 µM (inactive)
- GI50 (NCI-H460): 52.8 µM (inactive)
- GI50 (PC-3): > 100 µM (inactive)
- GI50 (SNB-75): 5.87 µM (inactive)
- GI50 (SK-MEL-28): > 100 µM (inactive)
- GI50 (IGROV-1): 72.1 µM (inactive)
- GI50 (UO-31): 27.8 µM (inactive)
- GI50 (KM12): > 100 µM (inactive)
- GI50 (NCI/ADR-RES): 50.4 µM (inactive)
- GI50 (OVCAR-5): 92.7 µM (inactive)
- GI50 (A549): 47.2 µM (inactive)
- GI50 (CAKI-1): 79.6 µM (inactive)
- GI50 (ACHN): 89.1 µM (inactive)
- GI50 (MDA-MB-435): > 100 µM (inactive)
- GI50 (TK-10): > 100 µM (inactive)
- GI50 (U-251): 58.6 µM (inactive)
- GI50 (HCT-15): 56.6 µM
- GI50 (HOP-62): 77.8 µM (inactive)
- GI50 (SNB-19): 48.8 µM (inactive)
- GI50 (UACC-62): > 100 µM (inactive)
- GI50 (NCI-H522): 32.2 µM (inactive)
- GI50 (SR): 46.2 µM (inactive)
- GI50 (HOP-92): 22.6 µM (inactive)
- GI50 (T47D): > 100 µM (inactive)
- GI50 (HCT-116): 61.2 µM (inactive)
- GI50 (M14): 90.4 µM (inactive)
- GI50 (SF-539): > 100 µM (inactive)
- GI50 (SK-MEL-2): > 100 µM (inactive)
- GI50 (MOLT-4): 24.8 µM (inactive)

Compound: CCCCCC[C@H]1C(=O)O[C@H](C)[C@H](NC(=O)c2cccc(NC=O)c2OC)C(=O)O[C@@H](C)[C@@H]1OC(=O)C(C)CC.CCCCCC[C@H]1C(=O)O[C@H](C)[C@H](NC(=O)c2cccc(NC=O)c2OC)C(=O)O[C@@H](C)[C@@H]1OC(=O)CC(C)C (stereo not given in full)
- GI50 (SF-268): 26.1 µM (inactive)
- GI50 (UACC-257): 3.96 µM (inactive)
- GI50 (SW-620): 14.5 µM (inactive)
- GI50 (HT-29): 8.59 µM (inactive)
- GI50 (MDA-N): 13.2 µM (inactive)
- GI50 (CCRF-CEM): 6.08 µM (inactive)
- GI50 (SK-MEL-5): 5.15 µM (inactive)
- GI50 (SF-295): 14.5 µM (inactive)
- GI50 (SN12C): 29.6 µM (inactive)
- GI50 (OVCAR-8): 11.6 µM (inactive)
- GI50 (BT-549): 27 µM (inactive)
- GI50 (SK-OV-3): 15.3 µM (inactive)
- GI50 (Hs-578T): 12.1 µM (inactive)
- GI50 (EKVX): 7.62 µM (inactive)
- GI50 (Malme-3M): > 100 µM (inactive)
- GI50 (HL-60): 4.53 µM (inactive)
- GI50 (OVCAR-4): 5.41 µM (inactive)
- GI50 (LOX IMVI): 25.9 µM (inactive)
- GI50 (MCF7): 4.88 µM (inactive)
- GI50 (NCI-H226): 17.6 µM (inactive)
- GI50 (MDA-MB-231): 15.8 µM (inactive)
- GI50 (COLO 205): 7.62 µM (inactive)
- GI50 (OVCAR-3): 6.71 µM (inactive)
- GI50 (786-0): 18.6 µM (inactive)
- GI50 (DU-145): 15.7 µM (inactive)
- GI50 (NCI-H23): 8.49 µM (inactive)
- GI50 (HCC 2998): 89.7 µM (inactive)
- GI50 (K562): 7.85 µM (inactive)
- GI50 (A498): 12.4 µM (inactive)
- GI50 (RXF 393): > 100 µM (inactive)
- GI50 (NCI-H460): 4.83 µM (inactive)
- GI50 (PC-3): 6.28 µM (inactive)
- GI50 (SK-MEL-28): > 100 µM (inactive)
- GI50 (UO-31): 46.8 µM (inactive)
- GI50 (KM12): 18.8 µM (inactive)
- GI50 (NCI/ADR-RES): 7.59 µM (inactive)
- GI50 (OVCAR-5): > 100 µM (inactive)
- GI50 (A549): 5.9 µM (inactive)
- GI50 (CAKI-1): 12.9 µM (inactive)
- GI50 (ACHN): 5.83 µM (inactive)
- GI50 (MDA-MB-435): 11.6 µM (inactive)
- GI50 (TK-10): 16 µM (inactive)
- GI50 (U-251): 11.7 µM (inactive)
- GI50 (RPMI-8226): 8.57 µM (inactive)
- GI50 (HCT-15): 14.7 µM
- GI50 (HOP-62): > 100 µM (inactive)
- GI50 (UACC-62): 8.49 µM (inactive)
- GI50 (NCI-H522): 12.2 µM (inactive)
- GI50 (SR): 5.82 µM (inactive)
- GI50 (HOP-92): 17.5 µM (inactive)
- GI50 (T47D): 20.8 µM (inactive)
- GI50 (HCT-116): 10.1 µM (inactive)
- GI50 (M14): 39.7 µM (inactive)
- GI50 (SF-539): 29.3 µM (inactive)
- GI50 (SK-MEL-2): 25.6 µM (inactive)
- GI50 (MOLT-4): 6.65 µM (inactive)

Compound: S=C1N(c2ccc(Cl)cc2)C2=C(/N=N/c3ccccc3)C(=Nc3ccccc3S2)N1c1ccccn1
- GI50 (SF-268): 3.59 µM (inactive)
- GI50 (UACC-257): 15.8 µM (inactive)
- GI50 (SW-620): 16.4 µM (inactive)
- GI50 (HT-29): 17.1 µM (inactive)
- GI50 (MDA-N): 15.4 µM (inactive)
- GI50 (CCRF-CEM): 5.36 µM (inactive)
- GI50 (SK-MEL-5): 11.4 µM (inactive)
- GI50 (SF-295): 15.7 µM (inactive)
- GI50 (SN12C): 12.5 µM (inactive)
- GI50 (OVCAR-8): 14.5 µM (inactive)
- GI50 (BT-549): 11.1 µM (inactive)
- GI50 (SK-OV-3): 17.8 µM (inactive)
- GI50 (Hs-578T): 16.4 µM (inactive)
- GI50 (EKVX): 12.2 µM (inactive)
- GI50 (Malme-3M): 2.78 µM (inactive)
- GI50 (HL-60): 12 µM (inactive)
- GI50 (LOX IMVI): 10.4 µM (inactive)
- GI50 (MCF7): 0.167 µM (active)
- GI50 (MDA-MB-231): 12.8 µM (inactive)
- GI50 (COLO 205): 12.6 µM (inactive)
- GI50 (OVCAR-3): 14.2 µM (inactive)
- GI50 (786-0): 14.9 µM (inactive)
- GI50 (DU-145): 14.7 µM (inactive)
- GI50 (NCI-H23): 15 µM (inactive)
- GI50 (HCC 2998): 17.4 µM (inactive)
- GI50 (A498): < 0.01 µM (active)
- GI50 (NCI-H460): 11 µM (inactive)
- GI50 (PC-3): 13.2 µM (inactive)
- GI50 (SNB-75): 19 µM (inactive)
- GI50 (SK-MEL-28): 15.4 µM (inactive)
- GI50 (IGROV-1): 0.164 µM (active)
- GI50 (UO-31): 10.1 µM (inactive)
- GI50 (KM12): 11.6 µM (inactive)
- GI50 (NCI/ADR-RES): 15.5 µM (inactive)
- GI50 (OVCAR-5): 19.1 µM (inactive)
- GI50 (A549): 13.6 µM (inactive)
- GI50 (CAKI-1): 13.8 µM (inactive)
- GI50 (ACHN): 14.5 µM (inactive)
- GI50 (MDA-MB-435): 13.5 µM (inactive)
- GI50 (TK-10): 14.8 µM (inactive)
- GI50 (U-251): 11 µM (inactive)
- GI50 (RPMI-8226): 17.7 µM (inactive)
- GI50 (HCT-15): 10.2 µM
- GI50 (HOP-62): 19.4 µM (inactive)
- GI50 (SNB-19): 13.9 µM (inactive)
- GI50 (SR): 11.2 µM (inactive)
- GI50 (HOP-92): 12.6 µM (inactive)
- GI50 (T47D): 0.075 µM (active)
- GI50 (HCT-116): 14.1 µM (inactive)
- GI50 (M14): 13.7 µM (inactive)
- GI50 (SF-539): 16.6 µM (inactive)
- GI50 (MOLT-4): 13.9 µM (inactive)
